Assay results: ChEMBL document CHEMBL5346925, “3,4-Dihydrobenzo[e][1,2,3]oxathiazine 2,2-dioxide analogs act as potential AMPA receptor potentiators with antidepressant activity” (Eur J Med Chem, 2023)

What was measured:
[1] = molecular target: Glutamate receptor ionotropic, AMPA (Rattus norvegicus) (UniProt P19491+P19492+P19493+P19490); experiment: Agonist activity at AMPA receptor in rat Primary neuron cells assessed as potentiation of s-AMPA induced calcium flux at 1 uM incubated for 1 hr by calcium 2+ influx assay relative to s-AMPA coupled TAK-137; type: cell-based; details: filed as agonist
[2] = molecular target: Glutamate receptor ionotropic, AMPA (Rattus norvegicus, UniProt P19490+P19491+P19492+P19493); experiment: Agonist activity at AMPA receptor in rat Primary neuron cells; type: cell-based
[3] = Half life in Sprague-Dawley rat at 1 mg/kg, po by LC-MS/MS analysis; type: ADME, organism-based; details: in vivo
[4] = Cmax in Sprague-Dawley rat at 0.1 mg/kg, iv by LC-MS/MS analysis; type: ADME, organism-based; set-up: dose 0.1 mg/kg, route iv; details: in vivo
[5] = Cmax in Sprague-Dawley rat at 1 mg/kg, po by LC-MS/MS analysis; type: ADME, organism-based; set-up: dose 1 mg/kg, route po; details: in vivo
[6] = AUC (0 to infinity) in Sprague-Dawley rat at 0.1 mg/kg, iv by LC-MS/MS analysis; type: ADME, organism-based; set-up: dose 0.1 mg/kg, route iv; details: in vivo
[7] = MRT (0 to infinity) in Sprague-Dawley rat at 0.1 mg/kg, iv by LC-MS/MS analysis; type: ADME, organism-based; details: in vivo
[8] = Clearance in Sprague-Dawley rat at 0.1 mg/kg, iv by LC-MS/MS analysis; type: ADME, organism-based; details: in vivo
[9] = Drug concentration in Sprague-Dawley rat plasma at 1 mg/kg, po measured after 1 hr by LC-MS/MS analysis; type: ADME, organism-based
[10] = Drug concentration in Sprague-Dawley rat plasma at 1 mg/kg, po measured after 6 hr by LC-MS/MS analysis; type: ADME, organism-based
[11] = Drug concentration in Sprague-Dawley rat brain at 1 mg/kg, po measured after 2 hrs by LC-MS/MS analysis; type: ADME, organism-based; details: read-out: Ct
[12] = Toxicity in mouse assessed as histopathological changes in lung at 0.2 to 0.4 mg/kg, ip administered once daily for 2 weeks and measured after 15 days by H and E staining based analysis; type: organism-based; details: in vivo, 360 h, dose 0.2-0.4 mg/kg, time 15 day

Activity [1]: 80.2%
EC50 [2]: 178 nM
half-life [3]: 4.84 h
Cmax [4]: 152 ng/mL
Cmax [5]: 142 ng/mL
AUC(0-inf) [6]: 129 ng·h/mL
MRT inf [7]: 2.22 h
clearance [8]: 12.9 mL/min/kg
concentration at 1 h [9]: 132 ng/mL
concentration at 6 h [10]: 54.2 ng/mL
concentration at 2 h [11]: 133 ng/g
SMILES: O=S1(=O)NCc2cccc(-c3ccc(-c4ccccc4F)cc3)c2O1
Activity [12]: Non-Toxic
